Values joined by “and” are separate entries in the source; they are usually repeats but may differ in a detail not shown here. Equal entries are not always repeated.
How the values were obtained:
Test in all cases: Midazolam potentiation of EC10 GABA currents, whole-cell patch clamp, HEK293T
Format in all cases: cell-based
[1] = molecular target: T1, α2(H101R)β2γ2 GABAA receptor (Homo sapiens, UniProt P18507+P47869+P47870, H129R); conditions: for Midazolam potentiation (%): α2(H101R)
T1 construct: expressed in transfected cells; host or cells: HEK293T
Text: (§1) Human (Homo sapiens) GABAA subunits (α1‐6, β2, γ2s) were subcloned into pcDNA3.1+ vectors with a cytomegalovirus (CMV) promoter. The hβ2 and hα3 sequences were humanized rat (Rattus norvegicus) cDNA with amino acid substitutions made to match the human protein sequence. The α1‐3, α5, β2, and γ2s subunits were a generous gift from Neil L. Harrison (Columbia University Medical Center, NY). The α4 subunit was obtained from GenScript (Piscataway, NJ), and the α6 subunit was a generous gift from Robert L. McDonald (Vanderbilt University, TN). All point mutations (listed in Figure 1C) were introduced using the QuikChange Lightening site‐directed mutagenesis kit (Agilent Technologies, Santa Clara, CA) according to the manufacturer's instructions and were confirmed by sequencing (Eurofins MWG Operon, Louisville, KY).
(§2) Human embryonic kidney cells containing the SV40 T‐antigen (HEK293T) were acquired from American Type Culture Collection (ATCC®, Manassas, VA), catalogue number, CRL3216. HEK293T cells were maintained at 37°C and 5% CO2 in Eagle Minimum Essential Medium (MEM) supplemented with 5% fetal bovine serum (Atlanta Biologicals Inc., Flowery Branch, GA), 40 μM L‐glutamine, 100 U/mL penicillin and 0.1 mM streptomycin. Cells were passaged regularly when they reached 70% confluency using trypsin. Cells were not passaged more than 22 times. New cells were revived from frozen stocks at passage 2‐4. Cells used for in vitro electrophysiology experiments were grown on poly‐D‐lysine‐coated glass coverslips (No.2, VWR, Radnor, PA) and transfected with X‐tremeGENE (Roche Diagnostics, Indianapolis, IN) with the desired receptor subunit cDNAs at a 1:1:1 ratio to express αxβ2γ2s receptors (2 μg total cDNA) and with 0.5 μg green fluorescent protein (GFP) as an expression marker. The γ2s incorporation into receptors was tested with zinc inhibition assays regularly.24 Patch clamp experiments were performed on cells at 24‐72 hours post‐transfection. All experiments were performed at 22°C. Experiments consisted of at least five cells recorded per day from at least two transfections across 3‐4 days to control for cell health and transfection efficiency. At least three cells expressing wild‐type receptors were recorded on days that mutant receptors were tested to provide a time‐matched expression control. All reagents were purchased from Sigma‐Aldrich (St. Louis, MO) unless otherwise stated.
(§3) Extracellular solution contained 161 mM NaCl, 3 mM KCl, 1 mM MgCl2, 1.5 mM CaCl2, 10 mM HEPES, and 6 mM D‐glucose, adjusted to pH 7.4 with NaOH (320‐330 mOsm). […] The perfusion system was controlled by protocols written in pClamp 9 (Molecular Devices, LLC., Sunnyvale, CA). Whole‐cell currents were recorded at ‐60 mV, filtered at 100 Hz and sampled at 200 Hz with a MultiClamp 700B amplifier (Molecular Devices, LLC) and DigiData 1322A (Molecular Devices, LLC) digitizer. […] Cells were recorded with the midazolam protocol no more than two times to avoid desensitization and incomplete washout or irreversible modulation.
(§4) Recordings were analyzed using MATLAB (Math Works, Inc., Natick, MA). […] The maximum peak current, EC50 and Hill coefficient were estimated for assays from each cell. When Hill parameters are estimated from whole‐cell recordings, the changes in the parameters across receptor conditions can be ascribed to the following changes in receptor physiology. Changes in maximum current can be due to changes in the single‐channel conductance or the rate of desensitization. Changes in cell surface receptor expression can cause minor changes in maximum current, but are unlikely to occur in the time course of our experimental protocol. […] More often minor changes in the Hill coefficient are attributed to the altered homogeneity in the receptor population expressed by the HEK293T cell. For example, a shallower Hill coefficient could be caused by a shift in the population of receptors from mostly αβγ receptors to a combination of both αβ and αβγ receptors.

[2] = molecular target: T2, α4(I204S)β2γ2 GABAA receptor (Homo sapiens, UniProt P18507+P47870+P48169, I239S)
T2 construct: expressed in transfected cells; host or cells: HEK293T
Text: as §1, §2, §3, §4

α2β2γ2 GABAA receptor = molecular target: T3, α2β2γ2 GABAA receptor (Homo sapiens, UniProt P18507+P47869+P47870)
T3 construct: expressed in transfected cells; host or cells: HEK293T
Text: as §1, §2, §3, §4

[3] = molecular target: T4, α1(S206I)β2γ2 GABAA receptor (Homo sapiens, UniProt P14867+P18507+P47870, S233I)
T4 construct: expressed in transfected cells; host or cells: HEK293T
Text: as §1, §2, §3, §4

α3β2γ2 GABAA receptor = molecular target: T5, α3β2γ2 GABAA receptor (Homo sapiens, UniProt P18507+P34903+P47870)
T5 construct: expressed in transfected cells; host or cells: HEK293T
Text: as §1, §2, §3, §4

[4] = molecular target: T6, α5(P166T)β2γ2 GABAA receptor (Homo sapiens, UniProt P18507+P31644+P47870, P197T)
T6 construct: expressed in transfected cells; host or cells: HEK293T
Text: as §1, §2, §3, §4

[5] = molecular target: T7, α3(S230I)β2γ2 GABAA receptor (Homo sapiens, UniProt P18507+P34903+P47870, S258I)
T7 construct: expressed in transfected cells; host or cells: HEK293T
Text: as §1, §2, §3, §4

T7 sequence (P34903 29-492 S258I): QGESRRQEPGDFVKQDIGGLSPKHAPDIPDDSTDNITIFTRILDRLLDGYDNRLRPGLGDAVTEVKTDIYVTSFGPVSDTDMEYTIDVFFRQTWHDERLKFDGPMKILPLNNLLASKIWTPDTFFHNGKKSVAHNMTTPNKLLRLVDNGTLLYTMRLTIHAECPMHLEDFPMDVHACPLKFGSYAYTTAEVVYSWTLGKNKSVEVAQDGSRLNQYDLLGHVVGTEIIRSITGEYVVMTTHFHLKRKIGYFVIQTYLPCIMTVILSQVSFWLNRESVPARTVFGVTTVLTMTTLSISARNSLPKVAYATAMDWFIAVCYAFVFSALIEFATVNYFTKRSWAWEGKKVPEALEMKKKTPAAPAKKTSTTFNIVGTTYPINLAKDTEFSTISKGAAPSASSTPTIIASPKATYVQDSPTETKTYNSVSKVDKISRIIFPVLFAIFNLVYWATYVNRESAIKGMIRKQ
T7 sequence (P47870 25-512 limits assumed): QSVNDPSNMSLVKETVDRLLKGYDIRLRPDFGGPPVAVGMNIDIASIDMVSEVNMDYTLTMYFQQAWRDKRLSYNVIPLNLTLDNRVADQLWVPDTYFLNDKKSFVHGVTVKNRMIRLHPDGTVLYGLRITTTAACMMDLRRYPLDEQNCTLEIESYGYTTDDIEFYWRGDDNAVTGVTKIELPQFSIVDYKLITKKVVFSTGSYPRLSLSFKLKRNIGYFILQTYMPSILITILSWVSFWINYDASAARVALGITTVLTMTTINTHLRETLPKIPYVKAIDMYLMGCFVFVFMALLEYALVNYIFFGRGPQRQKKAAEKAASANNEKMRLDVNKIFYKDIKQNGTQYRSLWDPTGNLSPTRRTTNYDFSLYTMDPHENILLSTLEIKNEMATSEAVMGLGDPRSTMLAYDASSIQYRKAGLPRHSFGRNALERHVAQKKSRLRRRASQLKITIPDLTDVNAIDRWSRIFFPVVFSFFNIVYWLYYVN
T7 sequence (P18507 40-467 isoform P18507-1 limits assumed, stated change not applied): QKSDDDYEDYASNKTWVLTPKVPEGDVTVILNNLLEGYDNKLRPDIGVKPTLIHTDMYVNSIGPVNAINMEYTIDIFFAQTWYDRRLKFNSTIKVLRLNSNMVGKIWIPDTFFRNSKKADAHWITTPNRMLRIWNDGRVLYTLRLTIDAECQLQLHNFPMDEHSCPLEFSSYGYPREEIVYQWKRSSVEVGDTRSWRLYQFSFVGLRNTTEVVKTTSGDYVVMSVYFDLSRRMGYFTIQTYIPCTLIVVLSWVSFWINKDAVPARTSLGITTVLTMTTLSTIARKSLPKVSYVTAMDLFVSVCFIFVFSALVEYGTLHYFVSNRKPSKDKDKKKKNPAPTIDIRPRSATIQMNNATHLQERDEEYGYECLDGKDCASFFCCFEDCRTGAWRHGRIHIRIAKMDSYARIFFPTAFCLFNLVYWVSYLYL
T1 sequence (P47869 29-451 H129R): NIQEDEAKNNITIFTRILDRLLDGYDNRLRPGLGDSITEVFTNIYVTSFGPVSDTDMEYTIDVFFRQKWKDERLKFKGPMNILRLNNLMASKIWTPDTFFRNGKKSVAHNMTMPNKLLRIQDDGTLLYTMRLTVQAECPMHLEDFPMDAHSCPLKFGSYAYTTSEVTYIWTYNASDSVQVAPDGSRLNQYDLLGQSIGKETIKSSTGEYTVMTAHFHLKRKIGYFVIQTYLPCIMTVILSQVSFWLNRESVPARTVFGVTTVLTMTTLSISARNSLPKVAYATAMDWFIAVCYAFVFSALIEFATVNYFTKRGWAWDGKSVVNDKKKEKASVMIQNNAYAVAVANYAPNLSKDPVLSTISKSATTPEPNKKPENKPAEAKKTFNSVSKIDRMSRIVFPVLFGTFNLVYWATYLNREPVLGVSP
T1 sequence (P47870 25-512 limits assumed): as the sequence (P47870 25-512 limits assumed) above
T1 sequence (P18507 40-467 isoform P18507-1 limits assumed, stated change not applied): as the sequence (P18507 40-467 isoform P18507-1 limits assumed, stated change not applied) above
T3 sequence (P47869 29-451): as the sequence (P47869 29-451 H129R) above, with R101H counted along it
T3 sequence (P47870 25-512 limits assumed): as the sequence (P47870 25-512 limits assumed) above
T3 sequence (P18507 40-467 isoform P18507-1 limits assumed): as the sequence (P18507 40-467 isoform P18507-1 limits assumed, stated change not applied) above

## Cc1ncc2n1-c1ccc(Cl)cc1C(c1ccccc1F)=NC2 [midazolam]
[1]; 10 nM MDZ + EC10 GABA
  Midazolam potentiation (%): 9.85 ± 5.77%
[1]; 50 nM MDZ + EC10 GABA
  Midazolam potentiation (%): 21.72 ± 8.75%
[1]; 100 nM MDZ + EC10 GABA
  Midazolam potentiation (%): 25.17 ± 9.58%
[1]; 500 nM MDZ + EC10 GABA
  Midazolam potentiation (%): 30.08 ± 10.31%
[1]; 1000 nM MDZ + EC10 GABA
  Midazolam potentiation (%): 31.81 ± 11.79%
[1]; printed α2(H102R)
  responsiveness to midazolam potentiation: abolished the ability of receptors to respond to midazolam potentiation
[2]
  responsiveness to midazolam potentiation: failed to convey any notable midazolam potentiation
[2]; 10 nM MDZ + EC10 GABA
  Midazolam potentiation (%): 9.47 ± 1.93%
[2]; 50 nM MDZ + EC10 GABA
  Midazolam potentiation (%): 13.23 ± 1.68%
[2]; 100 nM MDZ + EC10 GABA
  Midazolam potentiation (%): 16.59 ± 1.59%
[2]; 500 nM MDZ + EC10 GABA
  Midazolam potentiation (%): 20.16 ± 2.01%
[2]; 1000 nM MDZ + EC10 GABA
  Midazolam potentiation (%): 23.95 ± 2.33%
α2β2γ2 GABAA receptor
  EC50: 50.9 ± 5.05 nM
α2β2γ2 GABAA receptor; 10 nM MDZ + EC10 GABA, α2β2γ2
  Midazolam potentiation (%): 19.47 ± 4.19%
α2β2γ2 GABAA receptor; 50 nM MDZ + EC10 GABA, α2β2γ2
  Midazolam potentiation (%): 69.08 ± 17.73%
α2β2γ2 GABAA receptor; 100 nM MDZ + EC10 GABA, α2β2γ2
  Midazolam potentiation (%): 128.98 ± 36.14%
α2β2γ2 GABAA receptor; 500 nM MDZ + EC10 GABA, α2β2γ2
  Midazolam potentiation (%): 167.38 ± 49.89%
α2β2γ2 GABAA receptor; 1000 nM MDZ + EC10 GABA, α2β2γ2
  Midazolam potentiation (%): 165.35 ± 48.98%
α2β2γ2 GABAA receptor; α2β2γ2, Hill fit, midazolam 10-1000 nM + EC10 GABA
  Max potentiation (%): 169.6 ± 49.9%
α2β2γ2 GABAA receptor; α2β2γ2, midazolam Hill fit
  Hill coefficient: 1.743 ± 0.133
[3]
  EC50: 59.8 ± 4.11 nM
[3]; 10 nM MDZ + EC10 GABA, α1(S206I)
  Midazolam potentiation (%): 13.37 ± 5.70%
[3]; 50 nM MDZ + EC10 GABA, α1(S206I)
  Midazolam potentiation (%): 44.00 ± 10.96%
[3]; 100 nM MDZ + EC10 GABA, α1(S206I)
  Midazolam potentiation (%): 80.14 ± 17.04%
[3]; 500 nM MDZ + EC10 GABA, α1(S206I)
  Midazolam potentiation (%): 107.07 ± 22.95%
[3]; 1000 nM MDZ + EC10 GABA, α1(S206I)
  Midazolam potentiation (%): 108.21 ± 24.13%
[3]; α1(S206I), Hill fit, midazolam 10-1000 nM + EC10 GABA
  Max potentiation (%): 135.8 ± 23.8% and 135.8 ± 23.78 %
[3]; α1(S206I), midazolam Hill fit
  Hill coefficient: 1.568 ± 0.199
α3β2γ2 GABAA receptor; 10 nM MDZ + EC10 GABA
  Midazolam potentiation (%): 37.98 ± 5.40%
α3β2γ2 GABAA receptor; 50 nM MDZ + EC10 GABA
  Midazolam potentiation (%): 132.92 ± 12.09%
α3β2γ2 GABAA receptor; 100 nM MDZ + EC10 GABA
  Midazolam potentiation (%): 221.10 ± 19.12%
α3β2γ2 GABAA receptor; 500 nM MDZ + EC10 GABA
  Midazolam potentiation (%): 279.18 ± 24.71%
α3β2γ2 GABAA receptor; 1000 nM MDZ + EC10 GABA
  Midazolam potentiation (%): 281.17 ± 24.73%
α3β2γ2 GABAA receptor; EC50 (nM), midazolam potentiation of EC10 GABA
  EC50: 46.4 nM
α3β2γ2 GABAA receptor; Hill fit, midazolam 10-1000 nM + EC10 GABA
  Max potentiation (%): 267.8 ± 20.3%
α3β2γ2 GABAA receptor; midazolam Hill fit
  Hill coefficient: 1.503 ± 0.117
[4]
  EC50: 53.3 ± 5.54 nM
[4]; 10 nM MDZ + EC10 GABA, α5(P166T)
  Midazolam potentiation (%): 13.32 ± 1.68%
[4]; 50 nM MDZ + EC10 GABA, α5(P166T)
  Midazolam potentiation (%): 54.02 ± 5.66%
[4]; 100 nM MDZ + EC10 GABA, α5(P166T)
  Midazolam potentiation (%): 106.37 ± 15.09%
[4]; 500 nM MDZ + EC10 GABA, α5(P166T)
  Midazolam potentiation (%): 134.76 ± 21.59%
[4]; 1000 nM MDZ + EC10 GABA, α5(P166T)
  Midazolam potentiation (%): 141.51 ± 25.59%
[4]; α5(P166T), Hill fit, midazolam 10-1000 nM + EC10 GABA
  Max potentiation (%): 140.7 ± 23.7%
[4]; α5(P166T), midazolam Hill fit
  Hill coefficient: 3.661 ± 1.897
[5]; 10 nM MDZ + EC10 GABA, α3(S230I)
  Midazolam potentiation (%): 37.59 ± 4.12%
[5]; 50 nM MDZ + EC10 GABA, α3(S230I)
  Midazolam potentiation (%): 139.86 ± 12.63%
[5]; 100 nM MDZ + EC10 GABA, α3(S230I)
  Midazolam potentiation (%): 280.95 ± 24.73%
[5]; 500 nM MDZ + EC10 GABA, α3(S230I)
  Midazolam potentiation (%): 413.27 ±37.70%
[5]; 1000 nM MDZ + EC10 GABA, α3(S230I)
  Midazolam potentiation (%): 428.92 ± 38.09%
[5]; EC50 (nM), α3(S230I), midazolam potentiation of EC10 GABA
  EC50: 73.6 nM
[5]; α3(S230I) vs α3β2γ2
  enhancement of maximum midazolam potentiation relative to wildtype: approximately 63%
[5]; α3(S230I), Hill fit, midazolam 10-1000 nM + EC10 GABA
  Max potentiation (%): 436.0 ± 39.4%
[5]; α3(S230I), midazolam Hill fit
  Hill coefficient: 1.655 ± 0.061

From publication PMC6234229, “The role of loops B and C in determining the potentiation of GABAA receptors by midazolam” (Pharmacology Research & Perspectives, 2018)
